Measured values as given in US6358921B1, “Antimicrobial peptide compositions and method” (priority 1996, dated 2002).

How the values were obtained:
[1] = Displacement of dansyl-polymyxin from LPS; type: binding, P. aeruginosa; settings: read-out: LPS binding affinity: peptide concentration to displace 50% of dansyl-polymyxin B from LPS; Tables 1, 4, 7
Description: In order to determine whether ring size affects the interaction between the peptide and bacterial membranes, we studied the interaction between the GS ring analogs and bacterial lipopolysaccharide (LPS). It has been shown previously that dansyl-polymixin (DPX) is a good probe for cationic binding sites on both purified LPS as well as whole bacterial cells (Example 8; Moore, et al., 1986; Sawyer, et al., 1988; Hancock, 1981). […] The LPS binding activity of various GS analogs was investigated, as discussed above.
Dansyl-polymixin (DPX) displacement from P. aeruginosa LPS was measured as described (Moore, et al., 1986). Briefly, peptides were titrated into cuvettes containing 3 μg of LPS per mL and 2.5 μM dansyl-polymixin (approximately 90% saturation of LPS binding sites) in 1 mL of 5 mM sodium HEPES buffer, pH 7.0, and the decrease in fluorescence recorded. A plot of the inverse of the percent inhibition as a function of the inverse of inhibitor concentration gave a value for I50, the inhibitor concentration resulting in 50% displacement of dansyl-polymixin from LPS (−1/× intercept).

[2] = tested on: E. coli UB1005; type: cell-based, Escherichia coli; settings: UB1005
Description: (§1) The following bacterial strains were utilized: Escherichia coli UB1005 (wt) and its antibiotic supersusceptible derivative DC2 (Clark, 1984); Excherichia coli SC9251 and its polymixin B rasistant mutant pmrA SC9252 (Peterson, et al., 1987) Pseudomonas aeruginosa H187 (wt) (Angus, et al., 1987) and its antibiotic-sensitive derivative H188 (Zimmerman, W, Antimicrob. Agents Chemother. 18: 94-100, 1980); methicillin sensitive Staphylococcus aureus K147 (Kreiswirth, et al., 1983); Staphylococcus aureus SAP0017, a methicillin resistant clinical isolate from Dr. A. Chow (University of British Columia); Bacillus subtilis, an environmental wt lab strain. Enterococcus faecalis are ATCC 29212 cells and Staphylococcus epidermidis was a clinical isolate from Dr. D. Speert (University of British Columbia). Antifungal activity was tested using a clinical lab isolate of Candida albicans. Salmonella typhinurium C57 and C610 (Fields, P.I., et al., Science 243: 1059-1062 (1989) Corynebacterium xerosis was an environmental isolate (University of British Columbia).
(§2) It is now apparent that agar-based assays severely underestimate antifungal activity as well as activity against gram negative microorganisms (Kondejewski, et al., 1996). Consequently, in the studies reported herein, a liquid-broth method was used to measure the antibiotic properties of the peptides. […] Briefly, cells were grown overnight at 37° C. in LB and diluted in the same medium. Serial dilutions of antibiotics were added to the microtitre plates in a volume of 100 μL followed by 10 μL of bacteria to give a final inoculum of 5×10^5 CFU/mL. Plates were incubated at 37° C. overnight and MICs determined as the lowest antibiotic concentration that inhibited growth. […]

[3] = tested on: P. aeruginosa H187; type: cell-based, Pseudomonas aeruginosa; settings: H187
Description: as §1
(§3) It is now apparent that agar-based assays severely underestimate antifungal activity as well as activity against gram negative microorganisms (Kondejewski, et al., 1996). Consequently, in the studies reported herein, a liquid-broth method was used to measure the antibiotic properties of the peptides. […] Briefly, cells were grown overnight at 37° C. in LB and diluted in the same medium. Serial dilutions of antibiotics were added to the microtitre plates in a volume of 100 μL followed by 10 μL of bacteria to give a final inoculum of 5×10^5 CFU/mL. Plates were incubated at 37° C. overnight and MICs determined as the lowest antibiotic concentration that inhibited growth.
(§4) The results from antimicrobial and hemolytic assays are combined to provide a “Therapeutic Index” (TI) for each peptide with respect to individual microorganisms. As reported herein, the TI is calculated as the hemolytic activity divided by the antimicrobial activity. The TI thus is a measure of specificity of the particular peptide for microbial membranes as opposed to human blood cell membranes. In the present studies, antimicrobial activities are reported as minimum inhibitory concentrations (MIC)—the lowest concentration of peptide (μg/ml) found to inhibit growth of the particular microbe. Hemolytic activity is reported as the concentration of peptide that effected complete lysis of blood cells after four hours. Thus, in the context of the present invention high TI values indicate microbial specificity and relative lack of toxicity.

[4] = tested on: S. epidermidis; type: cell-based, Staphylococcus epidermidis
Description: as §1, §2

[5] = tested on: C. Albicans; type: cell-based, Candida albicans
Description: as §1, §2

[6] = tested on: E. faecalis; type: cell-based, Enterococcus faecalis
Description: as §1, §2

[7] = tested on: S. typhinurium C587; type: cell-based, Salmonella typhinurium
Description: as §1, §2

[8] = tested on: S. typhinurium C610; type: cell-based, Salmonella typhinurium
Description: as §1, §2

[9] = tested on: C. xeroses; type: cell-based, Corynebacterium xerosis
Description: as §1, §2

[10] = tested on: E. coli DC2; type: cell-based, Escherichia coli; settings: DC2
Description: as §1, §3, §4

[11] = tested on: P. aeruginosa H188; type: cell-based, Pseudomonas aeruginosa; settings: H188
Description: as §1, §2

[12] = tested on: B. subtilis; type: cell-based, Bacillus subtilis
Description: as §1, §2

[13] = tested on: S. aureus SAP0017; type: cell-based, Staphylococcus aureus
Description: as §1, §3, §4

[14] = tested on: S. aureus K147; type: cell-based, Staphylococcus aureus
Description: as §1, §3, §4

[15] = tested on: human erythrocytes; experiment: Hemolytic activity; type: cell-based
Procedure: Serial dilutions of the peptides in saline were prepared in round bottom microtitre plates using 100 μL volumes. Red blood cells were diluted with saline to 1/25 packed volume of cells and 50 μL added to each well. Plates were incubated with rocking at 37° C., and the concentration required for complete lysis determined visually after 4 h.

| SMILES | IC50 [1] | Minimum Inhibitory Concentration (activity) [2] | Minimum Inhibitory Concentration (activity) [3] | Minimum Inhibitory Concentration (activity) [4] | Minimum Inhibitory Concentration (activity) [5] | Minimum Inhibitory Concentration (activity) [6] | Minimum Inhibitory Concentration (activity) [7] | Minimum Inhibitory Concentration (activity) [8] | Minimum Inhibitory Concentration (activity) [9] | Minimum Inhibitory Concentration (activity) [10] | Minimum Inhibitory Concentration (activity) [11] | Minimum Inhibitory Concentration (activity) [12] | Minimum Inhibitory Concentration (activity) [13] | Minimum Inhibitory Concentration (activity) [14] | Hemolytic activity: peptide concentration for 100% lysis of human erythrocytes [15] |
| --- | --- | --- | --- | --- | --- | --- | --- | --- | --- | --- | --- | --- | --- | --- | --- |
| CC(C)C[C@@H]1NC(=O)[C@H](CCCCN)NC(=O)[C@H](C(C)C)NC(=O)[C@@H]2CCCN2C(=O)[C@H](Cc2ccc(O)cc2)NC(=O)[C@H](CC(C)C)NC(=O)[C@H](CCCCN)NC(=O)[C@H](C(C)C)NC(=O)[C@H](CCCCN)NC(=O)[C@H](CC(C)C)NC(=O)[C@@H]2CCCN2C(=O)[C@@H](Cc2ccc(O)cc2)NC(=O)[C@H](C(C)C)NC(=O)[C@H](CCCCN)NC1=O [GS14Y13] | 24 µM | 100 µg/mL | >200 µg/mL | 9 µg/mL | 25 µg/mL | 3.1 µg/mL | >200 µg/mL | >200 µg/mL | 1 µg/mL | 3.1 µg/mL | 100 µg/mL | >200 µg/mL | >200 µg/mL | >200 µg/mL | – |
| CC(C)C[C@@H]1NC(=O)[C@H](CCCCN)NC(=O)[C@H](C(C)C)NC(=O)[C@@H]2CCCN2C(=O)[C@@H](Cc2ccc(O)cc2)NC(=O)[C@H](CC(C)C)NC(=O)[C@H](CCCCN)NC(=O)[C@H](C(C)C)NC(=O)[C@H](CCCCN)NC(=O)[C@H](CC(C)C)NC(=O)[C@H]2CCCN2C(=O)[C@@H](Cc2ccc(O)cc2)NC(=O)[C@H](C(C)C)NC(=O)[C@H](CCCCN)NC1=O [GS14P7] | 18 µM | 200 µg/mL | 200 µg/mL | 6.2 µg/mL | 25 µg/mL | 6.2 µg/mL | >200 µg/mL | 200 µg/mL | 1 µg/mL | 6.2 µg/mL | 100 µg/mL | >200 µg/mL | >200 µg/mL | >200 µg/mL | – |
| CC(C)C[C@@H]1NC(=O)[C@H](CCCCN)NC(=O)[C@H](C(C)C)NC(=O)[C@H]2CCCN2C(=O)[C@@H](Cc2ccc(O)cc2)NC(=O)[C@H](CC(C)C)NC(=O)[C@H](CCCCN)NC(=O)[C@H](C(C)C)NC(=O)[C@H](CCCCN)NC(=O)[C@H](CC(C)C)NC(=O)[C@@H]2CCCN2C(=O)[C@@H](Cc2ccc(O)cc2)NC(=O)[C@H](C(C)C)NC(=O)[C@H](CCCCN)NC1=O [GS14P14] | 20 µM | 100 µg/mL | >200 µg/mL | 6.2 µg/mL | 25 µg/mL | 6.2 µg/mL | >200 µg/mL | >200 µg/mL | 1 µg/mL | 4 µg/mL | 100 µg/mL | >200 µg/mL | >200 µg/mL | >200 µg/mL | – |
| CC(C)C[C@@H]1NC(=O)[C@H](CCCCN)NC(=O)[C@H](C(C)C)NC(=O)[C@H](CCCCN)NC(=O)[C@@H]2CCCN2C(=O)[C@@H](Cc2ccc(O)cc2)NC(=O)[C@H](CCCCN)NC(=O)[C@H](CC(C)C)NC(=O)[C@H](CCCCN)NC(=O)[C@@H](C(C)C)NC(=O)[C@H](CCCCN)NC(=O)[C@@H]2CCCN2C(=O)[C@@H](Cc2ccc(O)cc2)NC(=O)[C@H](CCCCN)NC1=O [GS14invV2] | 71 µM | 25 µg/mL | 9 µg/mL | 100 µg/mL | 200 µg/mL | >200 µg/mL | 200 µg/mL | 37 µg/mL | 6.2 µg/mL | 50 µg/mL | 9 µg/mL | >200 µg/mL | – | >200 µg/mL | 800 µg/mL |
| CC(C)C[C@@H]1NC(=O)[C@H](CCCCN)NC(=O)[C@H](C(C)C)NC(=O)[C@H](CCCCN)NC(=O)[C@H](CC(C)C)NC(=O)[C@@H]2CCCN2C(=O)[C@@H](Cc2ccc(O)cc2)NC(=O)[C@H](C(C)C)NC(=O)[C@H](CCCCN)NC(=O)[C@@H](CC(C)C)NC(=O)[C@H](CCCCN)NC(=O)[C@H](C(C)C)NC(=O)[C@@H]2CCCN2C(=O)[C@@H](Cc2ccc(O)cc2)NC1=O [GS14L3] | 35 µM | 200 µg/mL | >200 µg/mL | 50 µg/mL | 100 µg/mL | 0.8 µg/mL | >200 µg/mL | >200 µg/mL | 0.8 µg/mL | 50 µg/mL | 200 µg/mL | >200 µg/mL | 200 µg/mL | >200 µg/mL | – |
